Legend:
Type in all cases: cell-based, human
HSD3β-1 = assay: Regulation of HSD3β-1 expression (quantitative RT-PCR, Western blot) in castration-resistant prostate cancer cell lines; conditions: C4-2B and C4-2 castration-resistant prostate cancer cell lines; FIG. 1
Excerpt: FIG. 1. Regulation of HSD3β-1 in C4-2B castration-resistant cell lines.

CYP24A1 = assay: Regulation of CYP24A1 mRNA expression in C4-2B castration-resistant cells (QRT-PCR)
Excerpt: FIG. 2. Regulation of CYP24A1 in C4-2B castration resistant cell lines.
CYP24A1 induction by calcitriol has been reported by many laboratories. However, complete suppression of this induction by androgen has not been reported in the literature.
(§1) Dampened vitamin D/VDR-induced CYP24A1 mRNA expression in the presence of androgen is beneficial, as it would prevent ligand degradation, thereby enhancing VDR signaling.

SULT2B1 = assay: QRT-PCR assay of SULT2B1 mRNAs in C4-2B cells; conditions: EB1089 10 nM, R1881 1 nM, FIG. 3B
Excerpt: as §1

| SMILES | expression of HSD3β-1 (messenger RNA and protein levels) (HSD3β-1) | induction of CYP24A1 (CYP24A1; C4-2B castration-resistant cells, calcitriol with or without androgen, FIG. 2) | induction of SULT2B1 mRNAs (SULT2B1) | CYP24A1 mRNA expression (induction) (CYP24A1; C4-2B cells, EB1089 10 nM, R1881 1 nM, FIG. 3A) |
| --- | --- | --- | --- | --- |
| C=C1/C(=C\C=C2/CCC[C@]3(C)[C@@H]([C@H](C)CCCC(C)(C)O)CC[C@@H]23)C[C@@H](O)C[C@@H]1O [calcitriol, 1,25-dihydroxycholecalciferol] | strongly induced | three orders of magnitude and more |  |  |
| C=C1/C(=C\C=C2/CCC[C@]3(C)[C@@H]([C@H](C)/C=C/C=C/C(O)(CC)CC)CC[C@@H]23)C[C@@H](O)C[C@@H]1O [EB1089] |  |  | induction | ~2000 fold |
